Measured values reported in patent publication US20070161691A1, “Modified-protein formation inhibitor” (TOKAI UNIVERSITY, priority 2003, published 2007).

Assays:
[1] = tested on: middle cerebral artery ischemia-reperfusion model; test: Cerebroprotective action in middle cerebral artery ischemia-reperfusion model; format: in vivo, rat
Description: CD(SD)IGS male rats (Japan Charles River Kabushiki […], Hino farm, room No. 22, specific product) (8 rats per one group) having body weight 270 to 350 g were anesthetized by 2% isoflurane (mixed bas comprising of 70% N2O (laughter gas) and 30% O2) to immobilize, and then the rats were put on warming plate to keep the rectal and brain temperature 37 to 38° C. After that, to observe the stability in the examination, canula which was made by polyethylene (PE-50, Becton Dickinson) was inserted and left in caudal artery of said animal, and this made blood drawing and blood pressure determining to monitor the biochemical parameter such as blood sugar level, hematocrit, CO2 concentration, oxygen partial pressure, pH, blood pressure and etc. In addition, cerebral blood flow in cortex was determined by laser doppler […] (Neuroscience.inc: OMEGA FLOW (FLO-C1)), putting the detection site directly on cranium on the point left 4 mm from bregma. Left neck of such animal was incised, and from internal and external carotid fork of common carotid artery to upstream of internal carotid, nylon surgical thread (length 16 mm, diameter 0.2 to 0.3 mm, with silicon coating on its tip 3 mm) was passed and left, middle cerebral artery was obstructed for 2 hours. After that, the thread was removed to release the middle cerebral artery, and blood was reperfused for 21 hours. To each animals, 3.0 mg/kg of 3-methyl-1-phenyl 2-pyrazolin-5-one (control, hereinafter referring to edaravone) and 4.23 mg/kg of 4-(5-phenyltetrazol-1-ylmethyl)-morpholine (compound 1) (test compound, hereinafter referring to TM-3001) were respectively administered twice by cannula which is left in caudal artery 5 minutes and 5 hours after middle cerebral artery occlusion. After said operation, the brain was removed from said animal, and after preparing 7 brain slices with 2 mm thickness, to TTC stain (0.8 g of 2,3,5-triphenyltetrazolium chloride (Sigma) dissolved in 40 ml of saline) were soaked at 37° C. for 15 minutes to stain, and fixed by 10% neutral formalin liquid to prepare specimen. Such specimens were created the image by CCD camera respectively, and analysed according to method of Swanson et al. (J Cereb Blood Flow Metab 10:290-293; […]). […] Furthermore, function recovering was estimated before and after the operation by rotor rod test that estimates how much they can walk on rotating rotor.

[2] = tested on: middle cerebral artery ischemia-reperfusion model; test: as above; format: in vivo, rat; details: after reperfusion 22 hrs
[3] = comparing to diluent single administration

Q: `CC1=NN(c2ccccc2)C(=O)C1` [Edaravone, 3-methyl-1-phenyl 2-pyrazolin-5-one, reference compound] was tested. Which “Nervous condition estimation test, Ave (Bederson grade)” value (“Nervous condition estimation test, Ave” for short) ([1]; after occlusion 10 min) did it give?
A: 2.8

Q: What about the “Nervous condition estimation test, Ave” value ([1]; after occlusion 2 hrs) of the same compound?
A: 2.7

Q: And the “Nervous condition estimation test, Ave” value ([1]; after reperfusion 10 min)?
A: 2.2

Q: And the “Nervous condition estimation test, Ave” value ([1]; after reperfusion 3 hrs)?
A: 2.1

Q: What about the “Nervous condition estimation test, Ave” value ([1]; after reperfusion 4 hrs) of the same compound?
A: 2.0

Q: What about the “rotor rod test, Ave (count from rotor rod machine)” value ([1]; before occlusion) of the same compound?
A: 197.0

Q: What about the “improvement for nervous condition” value [1, 3] of the same compound?
A: remarkably shown

Q: And the “recovering the function, rotor rod test” value [1, 3]?
A: remarkably shown

Q: And the cerebral infarction nest ([1]; comparing to diluent single administration, dosed 5 minutes and 5 hours after occlusion)?
A: significantly reduced

Q: And the “rotor rod test, Ave (count from rotor rod machine)” value ([1]; reperfusion)?
A: 153.1

Q: And the “rotor rod test, ratio to before occlusion (%), Ave” value ([1]; reperfusion vs before occlusion)?
A: 160.4%

Q: What about the “Nervous condition estimation test, Ave” value [2] of the same compound?
A: 1.5
